Measurements published in patent US20240122180A1, “FUNGICIDAL HALOMETHYL KETONES AND HYDRATES AND THEIR MIXTURES” (FMC Corporation, priority 2020, published 2024).

Experiments:
[1] = test system: Phakopsora pachyrhizi (the causal agent of Asian soybean rust); experiment: Test A: preventive spray on soybean seedlings, visual disease rating (100 = 100% control; * 50 ppm, ** 10 ppm, *** 250 ppm); format: in vivo; conditions: 100 = 100% disease control; for pest or weed control at 50 ppm / pest or weed control at 10 ppm: Phakopsora pachyrhizi
In short: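 Preventive test: one day after spraying compound (acetone/water suspension, 250 ppm PEG400), seedlings received rust spore inoculum, 24 h in saturated air then 8 days in growth chamber, both at 22 °C. Disease control scored visually, 100 = complete, 0 = none, relative to untreated controls.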

[2] = test system: Puccinia recondita f. sp. tritici (the causal agent of wheat leaf rust); experiment: Test B: preventive spray on wheat seedlings, disease rating (100 = 100% control; * 50 ppm, ** 10 ppm, *** 250 ppm); format: in vivo; conditions: 100 = 100% disease control; for pest or weed control at 50 ppm / pest or weed control at 10 ppm: Puccinia recondita
In short: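 Preventive test: Puccinia recondita f. sp. tritici spores were inoculated one day after run-off spraying of wheat seedlings with test suspension (acetone/water 50/50, 250 ppm PEG400). After 24 h in saturated air and 6 days in a growth chamber, both at 20° C, control was scored 0–100 versus untreated plants.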

[3] = 10 ppm test suspension, soybean seedlings
[4] = 10 ppm test suspension, wheat seedlings
[5] = 50 ppm test suspension, soybean seedlings
[6] = 50 ppm test suspension, wheat seedlings
[7] = 10 ppm test suspension, 0 = no control
[8] = 50 ppm test suspension, 0 = no control

| SMILES | Test A disease control rating [1, 3] [%] | Test B disease control rating [2, 4] [%] | also measured |
| --- | --- | --- | --- |
| O=C(NCC1CC1)c1cnn(Cc2ccc(OCC(O)(O)C(F)(F)F)cc2)c1 [compound 36] | 70 | 0 |  |
| CCOC(=O)c1cnn(Cc2ccc(CCC(O)(O)C(F)(F)F)cc2)c1 [compound 66] |  |  | Test A disease control rating [1, 5]: 92%; Test B disease control rating [2, 6]: 89% |
| O=C(OCC1CCCC1)c1cnn(Cc2ccc(OCC3(C(F)(F)F)OCCO3)cc2)c1 [compound 284] |  |  | Test A disease control rating [1, 7]: 100%; Test B disease control rating [2, 7]: 0% |
| C=C(C)COC(=O)c1ccn(Cc2ccc(O/C=C(\OCC)C(F)(F)F)cc2)n1 [compound 358] |  |  | Test A disease control rating [1, 7]: 100%; Test B disease control rating [2, 7]: 0% |
| COC(=O)NN=Cc1ccc(OCC2(C(F)(F)F)OCCO2)cc1 [compound 27] | 0 | 0 |  |
| CCO/C(=C\Oc1ccc(C(=O)OC)cc1)C(F)(F)F [compound 230] | 0 | 0 |  |
| O=C(OCC(F)(F)C(F)(F)F)c1cnn(Cc2ccc(OCC(O)(O)C(F)(F)F)cc2)c1 [compound 46] | 64 | 85 |  |
| O=C(O)c1cnn(Cc2ccc(OCC3(C(F)(F)F)OCCO3)cc2)c1 [compound 93] | 96 | 0 |  |
| CCOC(=O)c1ccn(Cc2ccc(OCC(O)(O)C(F)(F)F)cc2)n1 [compound 233] |  |  | Test A disease control rating [1, 5]: 100%; Test B disease control rating [2, 6]: 96% |
| CCO/C(=C\Oc1ccc(CN2CCC(C)(C)C2=O)cc1)C(F)(F)F [compound 225] | 0 | 0 |  |
| O=C(OCc1ccc(Cl)c(Cl)c1)c1cnn(Cc2ccc(OCC3(C(F)(F)F)OCCO3)cc2)c1 [compound 17] | 100 | 0 |  |
| CCS(=O)(=O)Cc1ccc(OCC2(C(F)(F)F)OCCO2)cc1 [compound 23] | 0 | 19 |  |
| CCO/C(=C\Oc1ccc(C=O)cc1)C(F)(F)F [compound 148] | 0 | 0 |  |
| OC(O)(COc1cccc(CCl)c1)C(F)(F)F [compound 423] |  |  | pest or weed control at 50 ppm [1, 8]: 87%; pest or weed control at 50 ppm [2, 8]: 80% |
| CCO/C(=C\Oc1ccc(C#N)cc1)C(F)(F)F [compound 144] | 78 | 0 |  |
| O=C(OCC1CCCCC1)c1cnn(Cc2ccc(OCC3(C(F)(F)F)OCCO3)cc2)c1 [compound 272] |  |  | Test A disease control rating [1, 7]: 100%; Test B disease control rating [2, 7]: 0% |
| CCOC(=O)c1cnn(Cc2ccc(C/C=C(\OCC)C(F)(F)F)cc2)c1 [compound 140] | 98 | 23 |  |
| FC(F)(F)C1(COc2ccc(OCC3(C(F)(F)F)OCCO3)cc2)OCCO1 [compound 28] | 0 | 0 |  |
| CCO/C(=C\Oc1ccc(C(N)=O)cc1)C(F)(F)F [compound 99] | 0 | 80 |  |
| C#CCOC(=O)c1ccn(Cc2ccc(O/C=C(\OCC)C(F)(F)F)cc2)n1 [compound 325] |  |  | Test A disease control rating [1, 7]: 100%; Test B disease control rating [2, 7]: 0% |
| CCOC(=O)Cc1nnn(Cc2ccc(O/C=C(\OCC)C(F)(F)F)cc2)n1 [compound 83] | 82 | 0 |  |
| CCOC(=O)c1cnn(COc2cccc(OCC3(C(F)(F)F)OCCO3)c2)c1 [compound 353] |  |  | pest or weed control at 50 ppm [1, 8]: 0%; pest or weed control at 50 ppm [2, 8]: 0% |
| CCC#CCOC(=O)c1ccn(Cc2ccc(O/C=C(\OCC)C(F)(F)F)cc2)n1 [compound 326] |  |  | Test A disease control rating [1, 7]: 100%; Test B disease control rating [2, 7]: 0% |
| CCO/C(=C\Oc1ccc(CNC(=O)CC)cc1)C(F)(F)F [compound 150] | 33 | 0 |  |

| SMILES | Test A disease control rating [1, 3] [%] | Test B disease control rating [2, 4] [%] | also measured |
| --- | --- | --- | --- |
| N#CCOC(=O)c1cnn(Cc2ccc(OCC3(C(F)(F)F)OCCO3)cc2)c1 [compound 172] | 100 | 0 |  |
| CCOC(=O)c1cnn(CCCc2ccc(OCC(O)(O)C(F)(F)F)cc2)c1 [compound 286] |  |  | Test A disease control rating [1, 7]: 87%; Test B disease control rating [2, 7]: 55% |
| CCCO/C(=C\Oc1ccc(Cn2cc(C(=O)OCC)cn2)cc1)C(F)(F)F [compound 65] | 100 | 0 |  |
| CCOC(=O)c1csc(Cc2ccc(OCC(O)(O)C(F)(F)F)cc2)n1 [Compound 136] | 98 | 83 |  |
| CCOC(=COc1ccc(CSC(C)=O)cc1)C(F)(F)F [compound 445] |  |  | Test A disease control rating [1, 8]: 38%; Test B disease control rating [2, 8]: 0% |
| CCOC(=O)c1cnn(Cc2ccc(CCC3(C(F)(F)F)OCCO3)cc2)c1 [compound 67] |  |  | Test A disease control rating [1, 5]: 65%; Test B disease control rating [2, 6]: 0% |
| CCOC(=O)c1cn(Cc2ccc(O/C=C(\OCC)C(F)(F)F)cc2)cn1 [compound 153] | 100 | 0 |  |
| CCCOC(=O)c1cnn(Cc2ccc(OCC(O)(O)C(F)(F)F)cc2)c1 [compound 42] | 99 | 85 |  |
| CC(C)C(=O)NCc1ccc(OCC2(C(F)(F)F)OCCO2)cc1 [compound 175] | 0 | 0 |  |
| CC#CCOC(=O)c1ccn(Cc2ccc(O/C=C(\OCC)C(F)(F)F)cc2)n1 [compound 293] |  |  | Test A disease control rating [1, 7]: 100%; Test B disease control rating [2, 7]: 0% |
| FC(F)(F)C1(COc2ccc(Oc3ccccc3)cc2)OCCO1 [compound 191] | 0 | 0 |  |
| CS(=O)(=O)c1nccc(Cc2ccc(OCC3(C(F)(F)F)OCCO3)cc2)n1 [compound 282] |  |  | Test A disease control rating [1, 8]: 0%; Test B disease control rating [2, 8]: 0% |
| CC(C)COC(=O)NCc1ccc(OCC2(C(F)(F)F)OCCO2)cc1 [compound 112] | 0 | 0 |  |
| CCOC(=O)c1cnn(Cc2ccc(F)c(O/C=C(\OCC)C(F)(F)F)c2)c1 [compound 418] |  |  | Test A disease control rating [1, 7]: 0%; Test B disease control rating [2, 7]: 0% |
| CCO/C(=C\Oc1ccc(Cn2ccc(C(=O)OCC(C)C)n2)cc1)C(F)(F)F [compound 357] |  |  | Test A disease control rating [1, 7]: 100%; Test B disease control rating [2, 7]: 9% |
| O=C(NCC1CC1)c1csc(Cc2ccc(OCC(O)(O)C(F)(F)F)cc2)n1 [Compound 69] | 98 | 96 |  |
| CCOC(=O)c1cnn(CCCc2cccc(OCC(O)(O)C(F)(F)F)c2)c1 [compound 417] |  |  | pest or weed control at 10 ppm [1, 7]: 0%; pest or weed control at 10 ppm [2, 7]: 0% |
| CCOC(=COc1ccc([N+](=O)[O-])cc1)C(F)(F)F [compound 279] |  |  | Test A disease control rating [1, 8]: 0%; Test B disease control rating [2, 8]: 0% |
| CCO/C(=C\Oc1ccc(Cn2cc(C(=O)NCC3CC3)cn2)cc1)C(F)(F)F [compound 117] | 23 | 0 |  |
| CCOC(=O)c1nccn1Cc1cccc(O/C=C(\OCC)C(F)(F)F)c1 [compound 367] |  |  | pest or weed control at 10 ppm [1, 7]: 0%; pest or weed control at 10 ppm [2, 7]: 0% |
| CCOC(=COc1ccc(CN2CCC(OC)CC2)cc1)C(F)(F)F [compound 312] |  |  | Test A disease control rating [1, 7]: 0%; Test B disease control rating [2, 7]: 0% |
| CCOC(=O)c1cnn(Cc2cccc(O/C=C(\OCC)C(F)(F)F)c2C)c1 [compound 303] |  |  | Test A disease control rating [1, 8]: 0%; Test B disease control rating [2, 8]: 0% |
| CCOC(=O)c1cnn(Cc2ccc(O/C=C(\OCC)C(F)(F)F)c(Br)c2)c1 [compound 344] |  |  | Test A disease control rating [1, 8]: 100%; Test B disease control rating [2, 8]: 0% |
| CCO/C(=C\Oc1cccc(Cn2cc(C(=O)OCC(C)=O)cn2)c1)C(F)(F)F [compound 337] |  |  | Test A disease control rating [1, 7]: 100%; Test B disease control rating [2, 7]: 0% |
